{"source": "ChEMBL document CHEMBL4251570", "about": "“Synthesis and biological evaluation of a novel β-D-2'-deoxy-2'-α-fluoro-2'-β-C-(fluoromethyl)uridine phosphoramidate prodrug for the treatment of hepatitis C virus infection” (Eur J Med Chem, 2018)", "key": {"[1]": {"assay": "Half life in human plasma at 1 mg/ml incubated up to 24 hrs at 37 degC by HPLC analysis", "format": "ADME, cell-free"}, "Mus musculus [2]": {"system": "Mus musculus", "assay": "Acute toxicity in Kunming mouse assessed as induction of observable clinical toxic signs at 2 to 4 g/kg, po administered as single dose measured after 15 days", "format": "organism-based", "settings": "in vivo, 360 h"}, "Hepatitis C virus [3]": {"system": "Hepatitis C virus", "assay": "Antiviral activity against Hepatitis C virus genotype 1a infected in human HuH7 cells after 48 hrs by luciferase reporter gene assay", "format": "functional, organism-based, Hepacivirus hominis", "settings": "subtype 1a, Huh-7, 48 h"}, "Hepatitis C virus [4]": {"system": "Hepatitis C virus", "assay": "Antiviral activity against Hepatitis C virus genotype 1b expressing NS5B RNA dependent RNA polymerase S282T mutant infected in human HuH7 cells after 48 hrs by luciferase reporter gene assay", "format": "functional, organism-based, Hepacivirus hominis", "settings": "Huh-7, 48 h"}, "Mus musculus [5]": {"system": "Mus musculus", "assay": "Acute toxicity in Kunming mouse assessed as induction of damage to liver at 2 to 4 g/kg, po administered as single dose measured after 15 days", "format": "organism-based", "settings": "in vivo, 360 h"}, "[6]": {"assay": "Cmax in Sprague-Dawley rat liver assessed as 1-((2R,3R,4R,5R)-3-fluoro-3-(fluoromethyl)-4-hydroxy-5-(hydroxymethyl)tetrahydrofuran-2-yl)pyrimidine-2,4(1H,3H)-dione triphosphate at 50 mg/kg administered via oral gavage by HPLC-MS/MS analysis", "format": "ADME, organism-based", "design": "dose 50 mg/kg, route oral", "settings": "in vivo"}, "[7]": {"assay": "Half life in human liver S9 fraction at 1 mg/ml incubated up to 120 mins at 37 degC by HPLC analysis", "format": "ADME, subcellular"}, "Mus musculus [8]": {"system": "Mus musculus", "assay": "Acute toxicity in Kunming mouse assessed as mortality at 2 to 4 g/kg, po administered as single dose measured after 15 days", "format": "organism-based", "settings": "in vivo, 360 h"}, "Mus musculus [9]": {"system": "Mus musculus", "assay": "Acute toxicity in Kunming mouse assessed as induction of induction of damage to lung at 2 to 4 g/kg, po administered as single dose measured after 15 days", "format": "organism-based", "settings": "in vivo, 360 h"}, "[10]": {"assay": "Cytotoxicity against human HuH7 cells after 72 hrs by CellTiter 96 AQueous one solution cell proliferation assay", "format": "cell-based, Huh-7"}, "Hepatitis C virus [11]": {"system": "Hepatitis C virus", "assay": "Antiviral activity against Hepatitis C virus JFH-1 infected in human HuH7 cells assessed as inhibition of viral core protein levels at 1 uM by Western blot method", "format": "functional, organism-based", "settings": "Hepacivirus hominis"}, "[12]": {"assay": "Tmax in Sprague-Dawley rat liver assessed as 1-((2R,3R,4R,5R)-3-fluoro-3-(fluoromethyl)-4-hydroxy-5-(hydroxymethyl)tetrahydrofuran-2-yl)pyrimidine-2,4(1H,3H)-dione triphosphate at 50 mg/kg administered via oral gavage by HPLC-MS/MS analysis", "format": "ADME, organism-based", "settings": "in vivo"}, "Mus musculus [13]": {"system": "Mus musculus", "assay": "Acute toxicity in Kunming mouse assessed as induction of damage to heart at 2 to 4 g/kg, po administered as single dose measured after 15 days", "format": "organism-based", "settings": "in vivo, 360 h"}, "Mus musculus [14]": {"system": "Mus musculus", "assay": "Acute toxicity in Kunming mouse assessed as induction of damage to kidney at 2 to 4 g/kg, po administered as single dose measured after 15 days", "format": "organism-based", "settings": "in vivo, 360 h"}, "Hepatitis C virus [15]": {"system": "Hepatitis C virus", "assay": "Antiviral activity against Hepatitis C virus genotype 1b infected in human HuH7 cells after 48 hrs by luciferase reporter gene assay", "format": "functional, organism-based, Hepacivirus hominis", "settings": "Huh-7, 48 h"}, "[16]": {"assay": "Half life in simulated gastric fluid at pH 1.2 at 1 mg/ml incubated up to 24 hrs at 37 degC by HPLC analysis", "format": "ADME"}, "[17]": {"assay": "Half life in Sprague-Dawley rat liver assessed as 1-((2R,3R,4R,5R)-3-fluoro-3-(fluoromethyl)-4-hydroxy-5-(hydroxymethyl)tetrahydrofuran-2-yl)pyrimidine-2,4(1H,3H)-dione triphosphate at 50 mg/kg administered via oral gavage by HPLC-MS/MS analysis", "format": "ADME, organism-based", "settings": "in vivo"}, "[18]": {"assay": "AUC (0 to infinity) in Sprague-Dawley rat liver assessed as 1-((2R,3R,4R,5R)-3-fluoro-3-(fluoromethyl)-4-hydroxy-5-(hydroxymethyl)tetrahydrofuran-2-yl)pyrimidine-2,4(1H,3H)-dione triphosphate at 50 mg/kg administered via oral gavage by HPLC-MS/MS analysis", "format": "ADME, organism-based", "design": "dose 50 mg/kg, time infinity, route oral", "settings": "in vivo"}, "Hepatitis C virus [19]": {"system": "Hepatitis C virus", "assay": "Antiviral activity against Hepatitis C virus genotype 2a infected in human HuH7 cells after 48 hrs by luciferase reporter gene assay", "format": "functional, organism-based, Hepacivirus hominis", "settings": "Huh-7, 48 h"}, "[20]": {"assay": "AUC (0 to t) in Sprague-Dawley rat liver assessed as 1-((2R,3R,4R,5R)-3-fluoro-3-(fluoromethyl)-4-hydroxy-5-(hydroxymethyl)tetrahydrofuran-2-yl)pyrimidine-2,4(1H,3H)-dione triphosphate at 50 mg/kg administered via oral gavage by HPLC-MS/MS analysis", "format": "ADME, organism-based", "settings": "in vivo"}, "Mus musculus [21]": {"system": "Mus musculus", "assay": "Acute toxicity in Kunming mouse assessed as induction of damage to spleen at 2 to 4 g/kg, po administered as single dose measured after 15 days", "format": "organism-based", "settings": "in vivo, 360 h"}, "[22]": {"assay": "Half life in simulated intestinal fluid at pH 7.4 at 1 mg/ml incubated up to 24 hrs at 37 degC by HPLC analysis", "format": "ADME"}, "Mus musculus [23]": {"system": "Mus musculus", "assay": "Acute toxicity in Kunming mouse assessed as change in body weight at 2 to 4 g/kg, po administered as single dose measured after 15 days", "format": "organism-based", "settings": "in vivo, 360 h"}, "Hepatitis C virus [24]": {"system": "Hepatitis C virus", "assay": "Antiviral activity against Hepatitis C virus JFH-1 infected in human HuH7 cells assessed as inhibition of viral RNA replication after 3 days by quantitative real-time RT-PCR analysis", "format": "functional, organism-based", "settings": "for Activity: Hepacivirus hominis; for EC50 / EC90: JFH-1, Huh-7, 72 h"}, "[25]": {"assay": "Drug level in Sprague-Dawley rat liver treated with at 50 mg/kg, po 2-(((S)-(((2R,3R,4R,5R)-5-(2,4-dioxo-3,4-dihydropyrimidin-1(2H)-yl)-4-fluoro-4-(fluoromethyl)-3-hydroxytetrahydrofuran-2-yl)methoxy) (phenoxy)phosphoryl)amino) propanoate assessed as compound formation by HPLC-MS/MS analysis", "format": "ADME, organism-based", "settings": "in vivo"}}, "note": "Active and inactive are the calls of the source. The calls are words filed in the database; no cut-off is given here.", "data": [{"smiles": "CC(C)OC(=O)[C@H](C)N[P@](=O)(OC[C@H]1O[C@@H](n2ccc(=O)[nH]c2=O)[C@@](F)(CF)[C@@H]1O)Oc1ccccc1", "values": [{"measurement": "half-life at 1 mg/ml", "setting": "[1]", "value": 1040, "unit": "min"}, {"measurement": "Activity", "setting": "Mus musculus [2]", "value": "Non-Toxic"}, {"measurement": "EC50", "setting": "Hepatitis C virus [3]", "value": 310, "unit": "nM"}, {"measurement": "EC90", "setting": "Hepatitis C virus [3]", "value": 1260, "unit": "nM"}, {"measurement": "EC50", "setting": "Hepatitis C virus [4]", "value": 1130, "unit": "nM"}, {"measurement": "EC90", "setting": "Hepatitis C virus [4]", "value": 7.7, "unit": "µM"}, {"measurement": "Activity", "setting": "Mus musculus [5]", "value": "Non-Toxic"}, {"measurement": "Cmax", "setting": "[6]", "value": 1895, "unit": "ng/g"}, {"measurement": "half-life", "setting": "[7]", "value": 29.4, "unit": "min"}, {"measurement": "Activity", "setting": "Mus musculus [8]", "value": "Non-Toxic"}, {"measurement": "Activity", "setting": "Mus musculus [9]", "value": "Non-Toxic"}, {"measurement": "CC50 at 72 h", "setting": "[10]", "value": "> 1", "unit": "mM"}, {"measurement": "Activity", "setting": "Hepatitis C virus [11]", "value": "Active"}, {"measurement": "Tmax", "setting": "[12]", "value": 5.83, "unit": "h"}, {"measurement": "Activity", "setting": "Mus musculus [13]", "value": "Non-Toxic"}, {"measurement": "Activity", "setting": "Mus musculus [14]", "value": "Non-Toxic"}, {"measurement": "EC50", "setting": "Hepatitis C virus [15]", "value": 240, "unit": "nM"}, {"measurement": "EC90", "setting": "Hepatitis C virus [15]", "value": 500, "unit": "nM"}, {"measurement": "half-life at 1 mg/ml", "setting": "[16]", "value": "> 1440", "unit": "min"}, {"measurement": "t1/2", "setting": "[17]", "value": 3.73, "unit": "h"}, {"measurement": "AUC", "setting": "[18]", "value": 15655, "unit": "ng·h/g"}, {"measurement": "EC50", "setting": "Hepatitis C virus [19]", "value": 540, "unit": "nM"}, {"measurement": "EC90", "setting": "Hepatitis C virus [19]", "value": 3.05, "unit": "µM"}, {"measurement": "AUCt", "setting": "[20]", "value": 14540, "unit": "ng·h/g"}, {"measurement": "Activity", "setting": "Mus musculus [21]", "value": "Non-Toxic"}, {"measurement": "half-life at 1 mg/ml", "setting": "[22]", "value": "> 1440", "unit": "min"}, {"measurement": "Activity", "setting": "Mus musculus [23]", "value": "Non-Toxic"}, {"measurement": "Activity", "setting": "Hepatitis C virus [24]", "value": "Dose-dependent effect"}, {"measurement": "EC50", "setting": "Hepatitis C virus [24]", "value": 180, "unit": "nM"}, {"measurement": "EC90", "setting": "Hepatitis C virus [24]", "value": 740, "unit": "nM"}]}, {"smiles": "CC(C)OC(=O)[C@H](C)N[P@](=O)(OC[C@H]1O[C@@H](n2ccc(=O)[nH]c2=O)[C@](C)(F)[C@@H]1O)Oc1ccccc1", "note": "[SOFOSBUVIR]", "values": [{"measurement": "CC50 at 72 h", "setting": "[10]", "value": "> 1", "unit": "mM"}, {"measurement": "Activity", "setting": "Hepatitis C virus [24]", "value": "Dose-dependent effect"}, {"measurement": "EC50", "setting": "Hepatitis C virus [24]", "value": 270, "unit": "nM"}, {"measurement": "EC90", "setting": "Hepatitis C virus [24]", "value": 830, "unit": "nM"}]}, {"smiles": "O=c1ccn([C@@H]2O[C@H](CO)[C@@H](O)[C@]2(F)CF)c(=O)[nH]1", "values": [{"measurement": "CC50 at 72 h", "setting": "[10]", "value": "> 1", "unit": "mM"}]}, {"smiles": "O=c1ccn([C@@H]2O[C@H](COP(=O)(O)OP(=O)(O)OP(=O)(O)O)[C@@H](O)[C@]2(F)CF)c(=O)[nH]1", "values": [{"measurement": "Drug metabolism", "setting": "[25]", "value": "Metabolite_Detected"}]}]}
